In patent US20090149458A1, “PYRROLO[3,2-d]PYRIMIDINE COMPOUNDS AND THEIR USE AS PI3 KINASE AND mTOR KINASE INHIBITORS” (Wyeth, priority 2007, published 2009) one finds IC50 data, which are given here for 29 compounds.

Common to all, as to format: biochemical
In one assay the target is PI3 Kinase α (Homo sapiens, UniProt P42336). Kind of assay: PI3K fluorescence polarization assay (PI3 Kinase α).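 Further: enzyme reaction with inhibitor or DMSO control, 30–60 min at room temperature, stopped by EDTA, then TAMRA detector with GST-GRP fluorescence polarization read after 90–110 min.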 As to conditions: 20 uM PIP2, 25 uM ATP. (Fluorescence polarisation rises when a labelled molecule tumbles more slowly, as on binding a larger partner.)
Sequence of PI3 Kinase α (P42336 whole entry): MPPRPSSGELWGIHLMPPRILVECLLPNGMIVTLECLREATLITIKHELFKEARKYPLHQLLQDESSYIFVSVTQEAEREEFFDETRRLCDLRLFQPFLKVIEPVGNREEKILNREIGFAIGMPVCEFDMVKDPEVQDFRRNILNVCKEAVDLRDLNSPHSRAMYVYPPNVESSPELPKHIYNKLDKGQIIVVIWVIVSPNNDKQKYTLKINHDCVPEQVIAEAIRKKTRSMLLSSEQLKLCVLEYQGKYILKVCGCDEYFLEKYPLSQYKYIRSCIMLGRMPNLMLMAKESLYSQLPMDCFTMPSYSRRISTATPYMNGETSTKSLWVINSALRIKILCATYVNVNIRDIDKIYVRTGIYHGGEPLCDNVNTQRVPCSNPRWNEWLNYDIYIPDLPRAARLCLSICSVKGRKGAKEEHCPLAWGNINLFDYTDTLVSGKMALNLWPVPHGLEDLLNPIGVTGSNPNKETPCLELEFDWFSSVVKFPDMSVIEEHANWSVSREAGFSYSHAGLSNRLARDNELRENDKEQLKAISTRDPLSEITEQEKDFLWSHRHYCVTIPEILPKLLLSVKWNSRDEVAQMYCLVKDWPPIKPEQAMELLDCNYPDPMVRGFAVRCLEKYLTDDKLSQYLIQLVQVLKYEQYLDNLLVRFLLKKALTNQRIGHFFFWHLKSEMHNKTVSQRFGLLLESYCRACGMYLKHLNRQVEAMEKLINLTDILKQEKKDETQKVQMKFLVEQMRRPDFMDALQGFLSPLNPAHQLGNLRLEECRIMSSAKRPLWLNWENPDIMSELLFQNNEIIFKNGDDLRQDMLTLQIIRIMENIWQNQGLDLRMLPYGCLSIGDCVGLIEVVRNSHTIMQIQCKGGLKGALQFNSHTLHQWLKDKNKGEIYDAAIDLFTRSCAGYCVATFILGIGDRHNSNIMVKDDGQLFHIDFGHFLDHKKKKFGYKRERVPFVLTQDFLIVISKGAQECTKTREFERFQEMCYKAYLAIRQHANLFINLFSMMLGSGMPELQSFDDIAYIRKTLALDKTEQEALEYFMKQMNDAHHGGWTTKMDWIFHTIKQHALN
Sequence of PI3 Kinase α (P27986 whole entry partner): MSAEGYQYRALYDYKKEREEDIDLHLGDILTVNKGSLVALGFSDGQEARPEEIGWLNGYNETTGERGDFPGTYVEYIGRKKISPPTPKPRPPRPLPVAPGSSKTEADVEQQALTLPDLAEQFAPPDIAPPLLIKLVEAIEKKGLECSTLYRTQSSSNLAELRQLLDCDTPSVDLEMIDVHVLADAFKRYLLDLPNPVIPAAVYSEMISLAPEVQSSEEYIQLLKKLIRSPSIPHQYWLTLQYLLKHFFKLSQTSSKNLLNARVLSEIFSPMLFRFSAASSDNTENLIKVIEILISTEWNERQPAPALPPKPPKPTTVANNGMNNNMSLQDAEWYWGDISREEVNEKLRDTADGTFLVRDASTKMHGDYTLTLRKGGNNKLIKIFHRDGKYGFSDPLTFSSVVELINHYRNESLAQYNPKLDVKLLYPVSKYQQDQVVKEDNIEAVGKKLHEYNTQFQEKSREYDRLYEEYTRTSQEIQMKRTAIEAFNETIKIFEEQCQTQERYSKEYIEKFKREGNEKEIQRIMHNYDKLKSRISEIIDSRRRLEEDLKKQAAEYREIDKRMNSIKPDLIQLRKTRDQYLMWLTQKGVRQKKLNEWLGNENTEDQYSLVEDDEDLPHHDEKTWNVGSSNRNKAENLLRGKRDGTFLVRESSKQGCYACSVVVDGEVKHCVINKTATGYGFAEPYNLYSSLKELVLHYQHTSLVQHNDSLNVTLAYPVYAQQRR
In a further assay the target is PI3 Kinase γ (Homo sapiens, UniProt P48736). Kind of assay: PI3K fluorescence polarization assay (PI3 Kinase γ). Conditions: 20 uM PIP2, 25 uM ATP. As to the method: Buffers: Reaction Buffer: 20 mM HEPES pH7.5, 2 mM MgCl2, 0.05% CHAPS, and 0.01% bME (added fresh); STOP/detection Buffer: 100 mM HEPES pH7.5, 4 mM EDTA, 0.05% CHAPS. STOCKS: ATP 20 mM in H2O; PIP2 (diC8, Echelon cat# P-4508) 1 mM in H2O MW=856.5; GST-murine GRP 1.5 mg/ml in 17% glycerol; Red detector probe-Echelon (TAMRA) 2.5 uM. Plate: Nunc 384 well black polypropylene fluor. Plate.
Sequence of PI3 Kinase γ (P48736 whole entry): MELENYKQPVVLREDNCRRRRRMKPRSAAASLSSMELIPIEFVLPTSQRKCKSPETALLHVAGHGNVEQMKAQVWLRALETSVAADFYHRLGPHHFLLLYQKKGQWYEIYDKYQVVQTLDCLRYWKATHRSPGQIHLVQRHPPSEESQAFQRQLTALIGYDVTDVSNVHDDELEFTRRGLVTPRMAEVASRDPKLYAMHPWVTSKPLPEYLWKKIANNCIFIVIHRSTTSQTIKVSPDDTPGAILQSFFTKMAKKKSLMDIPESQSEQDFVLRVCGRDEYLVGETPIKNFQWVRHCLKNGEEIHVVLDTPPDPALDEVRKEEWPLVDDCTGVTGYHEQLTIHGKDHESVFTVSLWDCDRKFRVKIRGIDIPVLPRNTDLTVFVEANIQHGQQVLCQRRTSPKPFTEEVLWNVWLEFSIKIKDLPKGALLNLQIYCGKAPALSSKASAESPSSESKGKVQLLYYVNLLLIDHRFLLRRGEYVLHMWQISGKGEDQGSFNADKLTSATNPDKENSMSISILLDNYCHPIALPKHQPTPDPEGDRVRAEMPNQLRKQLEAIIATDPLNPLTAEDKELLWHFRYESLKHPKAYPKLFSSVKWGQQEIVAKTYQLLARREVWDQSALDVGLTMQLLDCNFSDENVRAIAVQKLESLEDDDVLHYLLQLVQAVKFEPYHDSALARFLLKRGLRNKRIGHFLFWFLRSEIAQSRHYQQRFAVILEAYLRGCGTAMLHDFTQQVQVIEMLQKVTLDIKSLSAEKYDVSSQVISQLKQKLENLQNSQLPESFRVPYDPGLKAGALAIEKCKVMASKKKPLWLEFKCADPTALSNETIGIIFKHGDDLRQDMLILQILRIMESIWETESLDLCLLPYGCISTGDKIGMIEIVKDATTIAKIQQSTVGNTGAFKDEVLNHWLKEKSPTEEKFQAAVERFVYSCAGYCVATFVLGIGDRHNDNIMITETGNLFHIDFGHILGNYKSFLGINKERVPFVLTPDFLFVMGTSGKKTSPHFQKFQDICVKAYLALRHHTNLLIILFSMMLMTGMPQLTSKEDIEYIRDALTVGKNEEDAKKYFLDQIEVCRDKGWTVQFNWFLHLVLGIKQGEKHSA
Assay: The assay is run by putting 9.5 ul of freshly diluted enzyme (in “reaction buffer”) per well, then 0.5 ul of diluted drug or DMSO mixing. Then 10 ul of substrate is added to start the reaction. The mixture is incubated 30-60 minutes, room temp, then stopped with 20 ul of stop/detector mix. The substrate solution, is 40 μM PIP2 and 50 uM ATP in reaction buffer. Addition of 10 ul of substrate to each well starts the reaction. This is 20 uM PIP2, 25 uM ATP final in reaction.
Stop/detector mix: 10 nM TAMRA detector, 40 nM GST-GRP in STOP/detection buffer. To stop reaction: add 20 ul Stop/detector mix per well and mix well. Wait 90-110 minutes before reading plate. Plates are read on Perkin-Elmer Envision plate readers with filters for Tamra. Keep Red probe solutions dark. This procedure is adapted from Echelon Biosciences Inc procedure for their PI3-Kinase fluorescence polarization activity Assay kit Product number K-1100.

The target of the next assay is T1, human TOR (Homo sapiens, UniProt P42345).
T1 construct: FLAG
As to the kind of experiment: human TOR kinase assay with purified enzyme, DELFIA format.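 Further: 2 h kinase reaction at room temperature, phosphorylation of S6K at T389 detected with a europium-labelled antibody after plate capture, DMSO vehicle as control.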 Conditions: FLAG-TOR, 100 μM ATP, His6-S6K substrate.

Structures are written as SMILES.

Usually IC50 stands for the point on the concentration scale where inhibition reaches its midpoint. High values mean lower potency, low ones higher potency. For the compound `OCc1cccc(-c2nc(N3CCOCC3)c3[nH]cc(CN4CCN(c5ncccn5)CC4)c3n2)c1` [Example 14], the values for the IC50 against PI3 Kinase α, at PI3 Kinase γ and at human TOR were 89 nM, 4510 nM and 2200 nM, respectively.

Turning to `OCc1cccc(-c2nc(N3CCOCC3)c3[nH]cc(C4=CCNCC4)c3n2)c1` [Example 24, {3-[4-morpholin-4-yl-7-(1,2,3,6-tetrahydropyridin-4-yl)-5H-pyrrolo[3,2-d]pyrimidin-2-yl]phenyl}methanol], the IC50 against PI3 Kinase α amounted to 410 nM; against PI3 Kinase γ it was 1200 nM; against human TOR, 3400 nM.

Take `Oc1cccc(-c2nc(N3CCOCC3)c3[nH]cc(C4CCN(Cc5ccccc5)CC4)c3n2)c1` [Example 26, 3-[7-(1-benzylpiperidin-4-yl)-4-morpholin-4-yl-5H-pyrrolo[3,2-d]pyrimidin-2-yl]phenol]: half-maximal inhibition at PI3 Kinase γ (IC50) was put at 890 nM.

In the case of `Oc1cccc(-c2nc(N3CCOCC3)c3[nH]ccc3n2)c1` [Example 2, 3-(4-morpholin-4-yl-5H-pyrrolo[3,2-d]pyrimidin-2-yl)phenol], at PI3 Kinase γ, the IC50 came to 164 nM. Compared with the last compound, the IC50 is about 5.4-fold lower.

`Oc1cccc(-c2nc(N3CCOCC3)c3[nH]cc(C4CCN(Cc5ccc[nH]5)CC4)c3n2)c1` [Example 33, 3-{4-morpholin-4-yl-7-[1-(1H-pyrrol-2-ylmethyl)piperidin-4-yl]-5H-pyrrolo[3,2-d]pyrimidin-2-yl}phenol]: the concentration for half-maximal inhibition (IC50) stood at 111 nM on PI3 Kinase α, 792 nM against PI3 Kinase γ and 960 nM on human TOR.

Turning to `Cn1cc(CN2CCCC2)c2nc(-c3cccc(CO)c3)nc(N3CCOCC3)c21` [Example 47, {3-[5-methyl-4-morpholin-4-yl-7-(pyrrolidin-1-ylmethyl)-5H-pyrrolo[3,2-d]pyrimidin-2-yl]phenyl}methanol], the IC50 against PI3 Kinase γ is above 10000 nM; on human TOR it was above 4000 nM.

Regarding `O=C(NCCCn1ccnc1)Nc1cccc(-c2nc(N3CCOCC3)c3[nH]ccc3n2)c1` [Example 42, 1-[3-(1H-imidazol-1-yl)propyl]-3-[3-(4-morpholin-4-yl-5H-pyrrolo[3,2-d]pyrimidin-2-yl)phenyl]urea], the half-maximal inhibitory concentration (IC50) on PI3 Kinase α is 8940 nM; at PI3 Kinase γ, above 10000 nM; against human TOR it was above 4000 nM.

With `CCN(CC)Cc1c[nH]c2c(N3CCOCC3)nc(-c3cccc(O)c3)nc12` [Example 19, 3-{7-[(diethylamino)methyl]-4-morpholin-4-yl-5H-pyrrolo[3,2-d]pyrimidin-2-yl}phenol], the results for the half-inhibitory concentration (IC50) against PI3 Kinase α, against PI3 Kinase γ and against human TOR were 132 nM, 1820 nM and 3100 nM, respectively.

For `CN(C)Cc1c[nH]c2c(N3CCOCC3)nc(-c3cccc(O)c3)nc12` [Example 18, 3-{7-[(dimethylamino)methyl]-4-morpholin-4-yl-5H-pyrrolo[3,2-d]pyrimidin-2-yl}phenol], the IC50 worked out at 74 nM against PI3 Kinase α, 1150 nM against PI3 Kinase γ and 3300 nM against human TOR.

On to `CCN(CC)Cc1c[nH]c2c(N3CCOCC3)nc(-c3cccc(CO)c3)nc12` [Example 13], for which the IC50 against PI3 Kinase α amounted to 28 nM; on PI3 Kinase γ, 818 nM; at human TOR it was 260 nM.

Regarding `Oc1cccc(-c2nc(N3CCOCC3)c3[nH]cc(C4CCN(Cc5ncc[nH]5)CC4)c3n2)c1` [Example 28, 3-{7-[1-(1H-imidazol-2-ylmethyl)piperidin-4-yl]-4-morpholin-4-yl-5H-pyrrolo[3,2-d]pyrimidin-2-yl}phenol], the IC50 against PI3 Kinase α came out at 358 nM; against PI3 Kinase γ it was 983 nM; against human TOR, 2500 nM.

`Oc1cccc(-c2nc(N3CCOCC3)c3[nH]cc(C4CCN(Cc5ccc(F)cc5Cl)CC4)c3n2)c1` [Example 34, 3-{7-[1-(2-chloro-4-fluorobenzyl)piperidin-4-yl]-4-morpholin-4-yl-5H-pyrrolo[3,2-d]pyrimidin-2-yl}phenol]: the IC50 against PI3 Kinase α amounted to 120 nM; against PI3 Kinase γ, 1370 nM; at human TOR, 460 nM.

Take `OCc1cccc(-c2nc(N3CCOCC3)c3[nH]cc(CN4CCNCC4)c3n2)c1` [Example 11, {3-[4-morpholin-4-yl-7-(piperazin-1-ylmethyl)-5H-pyrrolo[3,2-d]pyrimidin-2-yl]phenyl}methanol]: the IC50 against PI3 Kinase α is 30 nM; against PI3 Kinase γ, 510 nM; against human TOR, 4300 nM.

For `Oc1cccc(-c2nc(N3CCOCC3)c3[nH]cc(C4CCN(Cc5ccc(F)cc5)CC4)c3n2)c1` [Example 23, 3-{7-[1-(4-fluorobenzyl)piperidin-4-yl]-4-morpholin-4-yl-5H-pyrrolo[3,2-d]pyrimidin-2-yl}phenol], the 50% inhibitory concentration (IC50) at PI3 Kinase γ worked out at 1070 nM.

Regarding `Oc1cccc(-c2nc(N3CCOCC3)c3[nH]cc(CN4CCN(c5ncccn5)CC4)c3n2)c1` [Example 20, 3-{4-morpholin-4-yl-7-[(4-pyrimidin-2-ylpiperazin-1-yl)methyl]-5H-pyrrolo[3,2-d]pyrimidin-2-yl}phenol], the half-maximal inhibitory concentration (IC50) at PI3 Kinase α turned out to be 424 nM; at PI3 Kinase γ, 6700 nM; at human TOR, 2000 nM.

As to `O=C(NCc1ccco1)Nc1cccc(-c2nc(N3CCOCC3)c3[nH]ccc3n2)c1` [Example 43, 1-(2-furylmethyl)-3-[3-(4-morpholin-4-yl-5H-pyrrolo[3,2-d]pyrimidin-2-yl)phenyl]urea], the results for the IC50 against PI3 Kinase α, on PI3 Kinase γ and at human TOR were above 10000 nM, above 10000 nM and above 4000 nM, respectively.

For `OCc1cccc(-c2nc(N3CCOCC3)c3[nH]cc(CNCc4cccnc4)c3n2)c1` [Example 9, [3-(4-morpholin-4-yl-7-{[(pyridin-3-ylmethyl)amino]methyl}-5H-pyrrolo[3,2-d]pyrimidin-2-yl)phenyl]methanol], the values for the half-inhibitory concentration (IC50) against PI3 Kinase α, on PI3 Kinase γ and against human TOR were 74 nM, 2870 nM and 5500 nM, respectively.

Consider `Oc1cccc(-c2nc(N3CCOCC3)c3[nH]cc(C4CCN(Cc5ccccn5)CC4)c3n2)c1` [Example 38, 3-{4-morpholin-4-yl-7-[1-(pyridin-2-ylmethyl)piperidin-4-yl]-5H-pyrrolo[3,2-d]pyrimidin-2-yl}phenol], for which the values for the IC50 against PI3 Kinase α, at PI3 Kinase γ and against human TOR were 140 nM, 611 nM and 605 nM, respectively.

Turning to `c1ccc(COc2cccc(-c3nc(N4CCOCC4)c4[nH]ccc4n3)c2)cc1` [Example 1, 2-[3-(benzyloxy)phenyl]-4-morpholin-4-yl-5H-pyrrolo[3,2-d]pyrimidine], the results for the IC50 against PI3 Kinase α, on PI3 Kinase γ and against human TOR were 950 nM, 443 nM and above 4000 nM, respectively.

On PI3 Kinase γ, `CN(C)Cc1c[nH]c2c(N3CCOCC3)nc(-c3cccc(CO)c3)nc12` [Example 12] yielded an IC50 of 561 nM.

Regarding `Oc1cccc(-c2nc(N3CCOCC3)c3[nH]cc(C4CCN(Cc5ccc(F)nc5)CC4)c3n2)c1` [Example 39, 3-(7-{1-[(6-fluoropyridin-3-yl)methyl]piperidin-4-yl}-4-morpholin-4-yl-5H-pyrrolo[3,2-d]pyrimidin-2-yl)phenol], the 50% inhibitory concentration (IC50) against PI3 Kinase α turned out to be 69 nM; against PI3 Kinase γ, 132 nM; on human TOR, 1260 nM.

As for `Oc1cccc(-c2nc(N3CCOCC3)c3[nH]cc(C4CCN(Cc5ccco5)CC4)c3n2)c1` [Example 27, 3-{7-[1-(2-furylmethyl)piperidin-4-yl]-4-morpholin-4-yl-5H-pyrrolo[3,2-d]pyrimidin-2-yl}phenol], the half-maximal inhibitory concentration (IC50) worked out at 297 nM against PI3 Kinase α, 1610 nM at PI3 Kinase γ and 2750 nM against human TOR.

As to `Nc1cccc(-c2nc(N3CCOCC3)c3[nH]ccc3n2)c1` [Example 5, 3-(4-morpholin-4-yl-5H-pyrrolo[3,2-d]pyrimidin-2-yl)aniline], the IC50 at PI3 Kinase γ stood at 8000 nM; against human TOR, 430 nM.

In the case of `Cn1ccc2nc(-c3cccc(CO)c3)nc(N3CCOCC3)c21` [Example 45, [3-(5-methyl-4-morpholin-4-yl-5H-pyrrolo[3,2-d]pyrimidin-2-yl)phenyl]methanol], the half-inhibitory concentration (IC50) against PI3 Kinase γ is 8110 nM; against human TOR, above 4000 nM.

`Cc1cccc(-c2nc(N3CCOCC3)c3[nH]ccc3n2)c1` [Example 4, 2-(3-methylphenyl)-4-morpholin-4-yl-5H-pyrrolo[3,2-d]pyrimidine]: the IC50 at PI3 Kinase γ was above 8700 nM; against human TOR, 5000 nM.

In turn, `Oc1cccc(-c2nc(N3CCOCC3)c3[nH]cc(C4CCNCC4)c3n2)c1` [Example 22, 3-(4-morpholin-4-yl-7-piperidin-4-yl-5H-pyrrolo[3,2-d]pyrimidin-2-yl)phenol] returned an IC50 against PI3 Kinase γ of 1070 nM.

At human TOR, `Oc1cccc(-c2nc(N3CCOCC3)c3[nH]cc(C4CCN(Cc5ccc(Cl)nc5)CC4)c3n2)c1` [Example 35, 3-(7-{1-[(6-chloropyridin-3-yl)methyl]piperidin-4-yl}-4-morpholin-4-yl-5H-pyrrolo[3,2-d]pyrimidin-2-yl)phenol] yielded an IC50 of 735 nM.

For the compound `OCc1cccc(-c2nc(N3CCOCC3)c3[nH]cc(CN4CCCC4)c3n2)c1` [Example 7, {3-[4-morpholin-4-yl-7-(pyrrolidin-1-ylmethyl)-5H-pyrrolo[3,2-d]pyrimidin-2-yl]phenyl}methanol], the IC50 against PI3 Kinase γ is 1120 nM. That is a single-digit micromolar value.

`OCc1cccc(-c2nc(N3CCOCC3)c3[nH]ccc3n2)c1` [Example 3, [3-(4-morpholin-4-yl-5H-pyrrolo[3,2-d]pyrimidin-2-yl)phenyl]methanol] came in with a concentration for half-maximal inhibition (IC50) against PI3 Kinase γ of 918 nM. The IC50 values of the last two compounds are within 1.5-fold of each other.
